Where a name gives a salt, the structure may show the parent alone.
Tests used:
cancer = conditions: different sites; cited from earlier work
B-16 melanoma = conditions: i.p. inoculation, i.p. administration; cited from earlier work
L-1210 leukemia = conditions: i.p. inoculation, i.p. administration; cited from earlier work
P-388 leukemia cells = assay: Antitumor activity: P-388 leukemia cells inoculated intraperitoneally, drug administered intravenously, BDF1 mice; type: in vivo; conditions: for response vs control in vivo at 80 mg/kg / response vs control in vivo at 40 mg/kg: Mus musculus, P388, iv, read-out: T/C (%) of MST; for response vs control in vivo at 80 mg/kg: dose f: 80 mg/kg × 3, i.v. on days 1, 5 and 9
In short: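 Drug dosing was intravenous on the first, fifth and ninth days after intraperitoneal inoculation of P-388 leukemia cells (1×10^6 per mouse) into BDF1 mice. Vehicles were physiological saline alone, or saline with small amounts of sodium carboxymethyl cellulose or Tween-80.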

P-388 leukemia = conditions: i.p. inoculation, i.p. administration; cited from earlier work
ddY mice = assay: Acute toxicity, intravenous (once), ddY mice; type: in vivo; conditions: formulated per Preparation Example
Source text: In Table 7 are shown acute toxicity values (LD50, mg/kg) in ddY mice in the case of intravenously administering (once) each of the compounds of this invention in the form of preparations shown in the Preparation Examples shown in Table 7.

[1] = dose c: 40 mg/kg × 3, i.v. on days 1, 5 and 9, BDF1 mice, P-388 i.p.

Compound	LD50 (ddY mice)	response vs control in vivo at 80 mg/kg (P-388 leukemia cells; BDF1 mice, P-388 i.p.)	further results
CO[C@H]1[C@@H](O)[C@@H](C)O[C@H](O[C@H]2[C@H](Oc3cccc4c(O)c5c(=O)oc6ccc(C)c7c(=O)oc(c34)c5c67)O[C@H](C)[C@H](O)[C@@H]2O)[C@@H]1O [chartreusin]	–	–	antitumorous activity when site of cancer inoculation and site of administration were different (cancer): not effective at all; antitumorous activity against B-16 melanoma (B-16 melanoma): effective; antitumorous activity against L-1210 leukemia (L-1210 leukemia): effective; T/C (%) (P-388 leukemia cells; 50 mg/kg/day x 3, suspension in 0.2M Na2HPO4 / N,N-dimethylacetamide (4:1), comparison): 105%; antitumorous activity against P-388 leukemia (P-388 leukemia): effective
COC1C(O)C(C)OC(OC2C(Oc3cccc4c(OC(=O)CN(C)C(=O)C(F)(F)F)c5c(=O)oc6ccc(C)c7c(=O)oc(c34)c5c67)OC(C)C3OC(c4ccccc4)OC32)C1O (stereo not drawn) [compound 67]	≥ 60 mg/kg	188%	–
COC1C(O)C(C)OC(OC2C(Oc3cccc4c(OC(=O)C(C)CNC(=O)C(F)(F)F)c5c(=O)oc6ccc(C)c7c(=O)oc(c34)c5c67)OC(C)C3OC(c4cccc(F)c4)OC32)C1O (stereo not drawn) [compound 68]	≥ 80 mg/kg	210%	response vs control in vivo at 40 mg/kg (P-388 leukemia cells; [1]): 148%
COC1C(O)C(C)OC(OC2C(Oc3cccc4c(OC(=O)CCN)c5c(=O)oc6ccc(C)c7c(=O)oc(c34)c5c67)OC(C)C3OC(c4ccccc4)OC32)C1O (stereo not drawn) [compound 80, 6-O-(β-alanyl)-3',4'-O-benzylidene-chartreusin hydrochloride]	–	184%	LD50 (ddY mice; hydrochloride): ≥ 80 mg/kg; T/C (%) of MST (P-388 leukemia cells; dose c: 40 mg/kg × 3, i.v. on days 1, 5 and 9, BDF1 mice, P-388 i.p., hydrochloride): 139%
COC1C(O)C(C)OC(OC2C(Oc3cccc4c(OC(=O)CCNC=O)c5c(=O)oc6ccc(C)c7c(=O)oc(c34)c5c67)OC(C)C3OC(c4ccsc4)OC32)C1O (stereo not drawn) [compound 89]	≥ 80 mg/kg	173%	–
COC1C(O)C(C)OC(OC2C(Oc3cccc4c(OC(=O)CCCCCNC(=O)OCc5ccccc5)c5c(=O)oc6ccc(C)c7c(=O)oc(c34)c5c67)OC(C)C3OC(c4ccccc4)OC32)C1O (stereo not drawn) [compound 110]	≥ 60 mg/kg	–	response vs control in vivo at 40 mg/kg (P-388 leukemia cells; [1]): 154%
COC1C(O)C(C)OC(OC2C(Oc3cccc4c(OC(=O)CCNC(=O)c5ccccc5)c5c(=O)oc6ccc(C)c7c(=O)oc(c34)c5c67)OC(C)C3OC(c4ccc(Br)cc4)OC32)C1O (stereo not drawn) [compound 124]	≥ 80 mg/kg	151%	–
CCCC(=O)Oc1c2cccc(OC3OC(C)C4OC(c5ccccc5)OC4C3OC3OC(C)C(O)C(OC)C3O)c2c2oc(=O)c3c(C)ccc4oc(=O)c1c2c43 (stereo not drawn) [compound 212, 6-O-(n-butyryl)-3',4'-O-benzylidene-chartreusin]	≥ 80 mg/kg	153%	–
C=CCCC(=O)Oc1c2cccc(O[C@@H]3O[C@H](C)[C@@H]4OC(c5ccccc5)O[C@@H]4[C@H]3O[C@H]3O[C@H](C)[C@H](O)[C@H](OC)[C@H]3O)c2c2oc(=O)c3c(C)ccc4oc(=O)c1c2c43 (stereo partly drawn) [compound 213]	≥ 80 mg/kg	160%	–
COC1C(O)C(C)OC(OC2C(Oc3cccc4c(OC(=O)CC(C)C)c5c(=O)oc6ccc(C)c7c(=O)oc(c34)c5c67)OC(C)C3OC(c4ccccc4)OC32)C1O (stereo not drawn) [compound 227]	≥ 80 mg/kg	143%	–
COC1C(O)C(C)OC(OC2C(Oc3cccc4c(OC(=O)C5CC5)c5c(=O)oc6ccc(C)c7c(=O)oc(c34)c5c67)OC(C)C3OC(c4ccccc4)OC32)C1O (stereo not drawn) [compound 230]	≥ 80 mg/kg	144%	–
